One test concerns the target T1, TYK2 JH2 (Homo sapiens, UniProt P29597).
T1 construct: purchased DiscoverX (KINOMEscan KdELECT service); host or cells: E. coli BL21-derived (T7 phage display) or HEK-293
The test can be described thus: TYK2 JH2 binding assay (KINOMEscan KdELECT competitive binding). As to conditions: TYK2 JH2 domain. The method, boiled down: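 JH2-domain fragment, expressed as T7 phage tag in BL21-derived E. coli or DNA-tagged from HEK-293, competed with test compound against bead-immobilized biotinylated ligand in binding buffer (0.9% DMSO). 1 h shaking at room temperature; bound kinase eluted with 0.5 μM free ligand and quantified by qPCR. Kd from 11-point 3-fold dilutions.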

Test [1] relates to JAK1/TYK2 pSTAT5 (Tyr694/699) in THP-1 cell line. The test can be described thus: IFNa-stimulated JAK1/TYK2 pSTAT5 (Tyr694/699) inhibition cellular assay, AlphaLISA. In kind it is cell-based. As to conditions: Homo sapiens, THP-1 cells, IFNa-stimulated, AlphaLISA (Assay B). In a few lines: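 Compound dilutions were dispensed first, and HBSS-suspended THP-1 cells were added on top (final top concentration 10000 nM, 6-fold series). After 1 h at 37 °C, IFNa (100 ng/mL as added) was applied for 30 min. Cells were then lysed and pSTAT5 was quantified by AlphaLISA.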

Where [2] appears, read: KINOMEscan KdELECT (Assay A), read-out: Biochemical TYK2_JH2_Kd.
Setting [3] is: read-out: Cellular THP1_IFNa-pSTATS_IC50.
Setting [4] is: DiscoverX KINOMEscan KdELECT (Assay A), read-out: Biochemical TYK2_DiscoverX_JH2_BND_Kd.
[5] abbreviates: read-out: Cellular_THP1_IFNa-pSTATS_TYK2.

The structures appear in SMILES notation. pIC50, pKd: −log10 of the molar value. Like-named read-outs stand apart in the source and are kept apart here. Bounds are passed on as bounds.

T1 sequence (P29597 589-875 limits assumed): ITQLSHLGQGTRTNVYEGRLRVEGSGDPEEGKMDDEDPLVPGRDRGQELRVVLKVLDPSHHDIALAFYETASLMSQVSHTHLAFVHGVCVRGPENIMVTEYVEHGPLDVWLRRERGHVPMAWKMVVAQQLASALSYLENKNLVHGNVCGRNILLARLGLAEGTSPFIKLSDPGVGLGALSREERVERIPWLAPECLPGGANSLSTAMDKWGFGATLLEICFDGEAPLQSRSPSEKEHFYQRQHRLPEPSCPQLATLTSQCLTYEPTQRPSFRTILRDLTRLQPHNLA

Consider `CNc1ncc(-c2ccc(C(=O)N(C)C)cc2)c2cc(NC(=O)C3CC3)ncc12` [Example 170, 4-(6-(cyclopropanecarboxamido)-1-(methylamino)-2,7-naphthyridin-4-yl)-N,N-dimethylbenzamide], for which the pKd on TYK2 JH2 (setting [2]) was at least 7.00. Also, the pIC50 in test [1] (setting [3]) is at least 6.30.
For the compound `CNc1ncc(-c2ccc(-c3ccccn3)cc2)c2cc(NC(=O)C3CC3)ncc12` [Example 171, N-(8-(methylamino)-5-(4-(pyridin-2-yl)phenyl)-2,7-naphthyridin-3-yl)cyclopropanecarboxamide], at TYK2 JH2 (setting [2]), the pKd is at least 7.00. For the same compound, the pIC50 in test [1] (setting [3]) was at least 6.30.
`CNc1ncc(-c2cccc(COCCOC)c2)c2cc(NC(=O)C3CC3)ncc12` [Example 172, N-(5-(3-((2-methoxyethoxy)methyl)phenyl)-8-(methylamino)-2,7-naphthyridin-3-yl)cyclopropanecarboxamide]: the pKd on TYK2 JH2 (setting [2]) is at least 7.00. The pIC50 in test [1] (setting [3]) is below 6.30.
As to `CNc1ncc(-c2ccc(-c3ccnn3C)cc2)c2cc(NC(=O)C3CC3)ncc12` [Example 173, N-(5-(4-(1-methyl-1H-pyrazol-5-yl)phenyl)-8-(methylamino)-2,7-naphthyridin-3-yl)cyclopropanecarboxamide], the pKd at TYK2 JH2 (setting [2]) was at least 7.00. Also, in test [1] (setting [3]), the pIC50 was at least 6.30.
For the compound `C=C(c1ccccc1OC)c1cnc(NC)c2cnc(NC(=O)C3CC3)cc12` [Example 175], the pKd on TYK2 JH2 (setting [2]) was 6.00 to 7.00. For the same compound, in test [1] (setting [3]), the pIC50 is below 6.30.
In the case of `CNc1nccc2cc(NC(=O)C3CC3)nnc12` [Example 176, N-(8-(methylamino)pyrido[3,4-c]pyridazin-3-yl)cyclopropanecarboxamide], the pKd on TYK2 JH2 (setting [2]) is 6.00 to 7.00. Moreover, in test [1] (setting [3]), the pIC50 is below 6.30.
On the same counts, the results for `CNc1ncc(Br)c2cc(NC(=O)C3CC3)nnc12` [Example 177, N-(5-bromo-8-(methylamino)pyrido[3,4-c]pyridazin-3-yl)cyclopropanecarboxamide] are at least 7.00 and below 6.30.
For `CNc1ncc(-c2ccccc2)c2cc(NC(=O)C3CC3)nnc12` [Example 178, N-(8-(methylamino)-5-phenylpyrido[3,4-c]pyridazin-3-yl)cyclopropanecarboxamide], the pKd at TYK2 JH2 (setting [2]) was at least 7.00. Moreover, in test [1] (setting [3]), the pIC50 is below 6.30.
On the same counts, the results for `CNc1ncc(-c2nc3ccc(F)cc3o2)c2cc(NC(=O)C3CC3)ncc12` [Example 179, N-(5-(6-fluorobenzo[d]oxazol-2-yl)-8-(methylamino)-2,7-naphthyridin-3-yl)cyclopropanecarboxamide] are at least 7.00 and at least 6.30.
On to `CNc1ncc(-c2nc3c(OC)cccc3o2)c2cc(NC(=O)C3CC3)ncc12` [Example 180, N-(5-(4-methoxybenzo[d]oxazol-2-yl)-8-(methylamino)-2,7-naphthyridin-3-yl)cyclopropanecarboxamide], for which, at TYK2 JH2 (setting [2]), the pKd was at least 7.00. Besides, the pIC50 in test [1] (setting [3]) was at least 6.30.
On the same counts, the results for `CNc1ncc(-c2nc3cc(F)ccc3o2)c2cc(NC(=O)C3CC3)ncc12` [Example 181, N-(5-(5-fluorobenzo[d]oxazol-2-yl)-8-(methylamino)-2,7-naphthyridin-3-yl)cyclopropanecarboxamide] are at least 7.00 and at least 6.30.
As for `CNc1ncc(-c2nc3c(F)cccc3o2)c2cc(NC(=O)C3CC3)ncc12` [Example 184, N-(5-(4-fluorobenzo[d]oxazol-2-yl)-8-(methylamino)-2,7-naphthyridin-3-yl)cyclopropanecarboxamide], the pKd on TYK2 JH2 (setting [2]) is at least 7.00. Further, in test [1] (setting [3]), the pIC50 was at least 6.30.
As for `CNc1ncc(-c2nc3cc(N4CCC4)ccn3n2)c2cc(NC(=O)C3CC3)ncc12` [Example 188, N-(5-(7-(azetidin-1-yl)-[1,2,4]triazolo[1,5-a]pyridin-2-yl)-8-(methylamino)-2,7-naphthyridin-3-yl)cyclopropanecarboxamide], the pKd on TYK2 JH2 (setting [2]) was at least 7.00. The pIC50 in test [1] (setting [3]) was at least 6.30.
As to `[2H]C([2H])([2H])Oc1ccc2oc(-c3cnc(NC)c4cnc(NC(=O)C5CC5)cc34)nc2c1` [Example 195, N-(5-(5-(methoxy-d3)benzo[d]oxazol-2-yl)-8-(methylamino)-2,7-naphthyridin-3-yl)cyclopropanecarboxamide], the pKd at TYK2 JH2 (setting [4]) is at least 7.00. Further, the pIC50 in test [1] (setting [5]) was at least 6.30.
With `CNc1ncc(-c2nc3cc(OC4CN(C(=O)OC(C)(C)C)C4)ccc3o2)c2cc(NC(=O)C3CC3)ncc12` [Example 196, tert-butyl 3-((2-(6-(cyclopropanecarboxamido)-1-(methylamino)-2,7-naphthyridin-4-yl)benzo[d]oxazol-5-yl)oxy)azetidine-1-carboxylate], at TYK2 JH2 (setting [4]), the pKd was at least 7.00. Further, the pIC50 in test [1] (setting [5]) was at least 6.30.
For `CNc1ncc(-c2nc3cc(OC4CNC4)ccc3o2)c2cc(NC(=O)C3CC3)ncc12` [Example 197, N-(5-(5-(azetidin-3-yloxy)benzo[d]oxazol-2-yl)-8-(methylamino)-2,7-naphthyridin-3-yl)cyclopropanecarboxamide], the pKd on TYK2 JH2 (setting [4]) was at least 7.00. Besides, in test [1] (setting [5]), the pIC50 is at least 6.30.
On to `CNc1ncc(-c2nc3cc(OC4CN(C)C4)ccc3o2)c2cc(NC(=O)C3CC3)ncc12` [Example 198, N-(8-(methylamino)-5-(5-((1-methylazetidin-3-yl)oxy)benzo[d]oxazol-2-yl)-2,7-naphthyridin-3-yl)cyclopropanecarboxamide], for which the pKd at TYK2 JH2 (setting [4]) was at least 7.00. Besides, the pIC50 in test [1] (setting [5]) was at least 6.30.
With `CNc1ncc(-c2nc3cc(O[C@H]4C[C@H](OC)C4)ccc3o2)c2cc(NC(=O)C3CC3)ncc12` [Example 199, N-(5-(5-((1r,3r)-3-methoxycyclobutoxy)benzo[d]oxazol-2-yl)-8-(methylamino)-2,7-naphthyridin-3-yl)cyclopropanecarboxamide], at TYK2 JH2 (setting [4]), the pKd is at least 7.00. Besides, the pIC50 in test [1] (setting [5]) was at least 6.30.
The matching figures for `CNc1ncc(-c2nc3cc(O[C@H]4C[C@@H](OC)C4)ccc3o2)c2cc(NC(=O)C3CC3)ncc12` [Example 200, N-(5-(5-((1s,3s)-3-methoxycyclobutoxy)benzo[d]oxazol-2-yl)-8-(methylamino)-2,7-naphthyridin-3-yl)cyclopropanecarboxamide]: at least 7.00 and at least 6.30.
On to `CNc1ncc(-c2nc3c(COC)cccc3o2)c2cc(NC(=O)C3CC3)ncc12` [Example 201, N-(5-(4-(methoxymethyl)benzo[d]oxazol-2-yl)-8-(methylamino)-2,7-naphthyridin-3-yl)cyclopropanecarboxamide], for which the pKd on TYK2 JH2 (setting [4]) is at least 7.00. Also, the pIC50 in test [1] (setting [5]) was at least 6.30.
Regarding `CNc1ncc(-c2nc3cc(OC)c(OC)cc3o2)c2cc(NC(=O)C3CC3)ncc12` [Example 202, N-(5-(5,6-dimethoxybenzo[d]oxazol-2-yl)-8-(methylamino)-2,7-naphthyridin-3-yl)cyclopropanecarboxamide], the pKd at TYK2 JH2 (setting [4]) is at least 7.00. For the same compound, in test [1] (setting [5]), the pIC50 was at least 6.30.
Consider `CNc1ncc(-c2nc3ccc(OC)cc3o2)c2cc(NC(=O)C3CC3)ncc12` [Example 203, N-(5-(6-methoxybenzo[d]oxazol-2-yl)-8-(methylamino)-2,7-naphthyridin-3-yl)cyclopropanecarboxamide], for which, on TYK2 JH2 (setting [4]), the pKd is at least 7.00. In test [1] (setting [5]), the pIC50 was at least 6.30.
Consider `CNc1ncc(-c2nc3c(Cl)cccc3o2)c2cc(NC(=O)C3CC3)ncc12` [Example 204, N-(5-(4-chlorobenzo[d]oxazol-2-yl)-8-(methylamino)-2,7-naphthyridin-3-yl)cyclopropanecarboxamide], for which, at TYK2 JH2 (setting [4]), the pKd is at least 7.00. For the same compound, in test [1] (setting [5]), the pIC50 was at least 6.30.

The record behind these values is patent US20240025906A1 (NEURON23, INC., priority 2022, published 2024).
